One data set relates to MES-SA cells. Briefly: Cell cycle analysis, MES-SA. Type of data set: cell-based, human. Conditions: for G0/G1 / G2/M / S: MES-SA. Here is the method:
(§1) Cell cycle arrest in S-phase has been observed for Triapine analogues at concentrations ranging from 0.25 to 5.0 μM,[82],[83] in line with a mechanism of action relying on RNR inhibition.
(§2) Figure S18. Cell cycle arrest for (a) proligand H2L4 and (b) complex 4 in MES-SA cells, as
(§3) well as for (c) proligand H2L4 and (d) complex 4 in the MES-SA/Dx5 cancer cell line.
(§4) Table S4. Cell cycle arrest for proligand H2L4 and complex 4 in the MES-SA and MES-
(§5) SA/Dx5 cancer cell lines.
(§6) H2L4 (MES-SA) H2L4 (MES-SA/Dx5) complex 4 (MES-SA) complex 4 (MES-SA/Dx5)
(§7) Table S5. Cell cycle arrest for proligand H2L6 and complex 6 in the MES-SA and MES-
(§8) H2L6 (MES-SA) H2L6 (MES-SA/Dx5) complex 6 (MES-SA) complex 6 (MES-SA/Dx5)
(§9) (1 picture or pasted object on this page, not shown here)

The test system of another data set is MES-SA/Dx5 cells. Briefly: Cell cycle analysis, MES-SA/Dx5. Type of data set: cell-based, human. Here is the method:
as §1, §2, §3, §4, §5, §6, §7, §8, §9

Data set [1] is described as follows: pKa of the copper(II) complexes (UV–vis / pH-potentiometric titrations). Conditions: 30% (v/v) DMSO/H2O, 25 °C.
Method: The solution speciation of copper(II) complexes with H2L^3–H2L^6 was studied primarily by UV–vis spectrophotometric titrations in a 30% (v/v) DMSO/H2O solvent mixture as a function of pH.
An Agilent Carry 8454 diode array spectrophotometer was used to record the UV–vis spectra in the interval 200–800 nm. The path length was 1 cm. Proton dissociation constants (pKa) of the proligands and complexes were calculated by the computer program PSEQUAD.[94] Spectrophotometric titrations were performed on samples containing the proligands at a 50–100 μM concentration with a KOH solution in the presence of 0.1 M KCl at 25.0 ± 0.1 °C in the pH range from 2 to 11.5 in a 30% (v/v) DMSO/H2O solvent mixture, and the metal-to-ligand ratios were 1:0, 1:1, and 1:2. An Orion 710A pH meter equipped with a Metrohm combined electrode (type 6.0234.100) and a Metrohm 665 Dosimat buret were used for the titrations. […] Ar was also passed over the solutions during the titrations. Measurements were carried out in the range ca. 1.0–2.0 by preparing individual samples, in which KCl was partially or completely replaced by HCl, and pH values were calculated from the strong acid content. The conditional stability constants (K′) of the copper(II) complexes were calculated at pH 5.90 based on the spectral changes via the displacement reaction with EDTA in the presence 50 mM MES and 0.1 M KCl in water or in 30% (v/v) DMSO/H2O. In the competition experiments, the samples contained 25 μM copper(II) and 25 μM proligand, and the concentration of EDTA was varied from 0 to 400 μM. The conditional stability constants of the metal complexes (K′) and the individual spectra of the species were calculated by the computer program PSEQUAD.[94]
Data set [2] is described as follows: Cyclic voltammetry of copper(II) complexes in DMSO/n-Bu4NPF6. Type of data set: physicochemical. Conditions: for Epa^1: first anodic peak potential vs Fc+/Fc; for Epa^1 / Epa^2: 100 mV s^–1; for Epa^2: second anodic peak potential vs Fc+/Fc; for E1/2^red: vs Fc+/Fc, scan rate 100 mV s^–1. Here is the method: The redox properties of the copper(II) complexes 3–6 were investigated by electrochemical, EPR, and UV–vis spectroelectrochemical measurements. […] While the half-wave reduction potentials E1/2^red for complexes 3–5 were almost the same (−0.82 V vs Fc^+/Fc), the E1/2^red for 6 is by 0.07 V more positive (−0.75 V vs Fc^+/Fc), as summarized in Table 4. The corresponding proligands are not redox active in the cathodic part (not shown).
Cyclic voltammetric experiments with 0.5 mM solutions of copper(II) complexes 3–6 in 0.1 M nBu4NPF6 (puriss quality from Fluka; dried under reduced pressure at 70 °C for 24 h before use) as supporting electrolyte in DMSO (SeccoSolv max. 0.025% H2O, Merck) were performed under Ar using a three-electrode arrangement with Pt wire as the counter electrode and Ag wire as the pseudoreference electrode. Glassy carbon or Pt wire served as the working electrode. Ferrocene purchased from Sigma-Aldrich was used as the internal potential standard without further purification. All potentials in voltammetric studies were quoted vs ferricenium/ferrocene (Fc^+/Fc) as the redox couple. A Heka PG310USB (Lambrecht, Germany) potentiostat with a PotMaster 2.73 software package served for the potential control in voltammetric studies. In situ ultraviolet–visible-near-infrared (UV–vis–NIR) spectroelectrochemical measurements were performed on a spectrometer (Avantes, Model AvaSpec-2048 × 14-USB2 in the spectroelectrochemical cell kit ([…]3) with the Pt-microstructured honeycomb working electrode, purchased from Pine Research Instrumentation. The cell was positioned in the CUV-UV Cuvette Holder (Ocean Optics) connected to the diode array UV–vis-NIR spectrometer by optical fibers. UV–vis-NIR spectra were processed using the AvaSoft 7.7 software package. Halogen and deuterium lamps were used as light sources (Avantes, Model AvaLight-DH-S-BAL).

The mark [3] stands for this setting: cell line not given (figures: MES-SA and MES-SA/Dx5).

Take `Cc1cc(NC(=NN=Cc2cc(CN3CCOCC3)ccn2)[S][Cu][Cl])cc(C)c1O` [complex 4, [Cu(HL^4)Cl]·1.5H2O]: the G0/G1 in the data set on MES-SA cells (2 µM) stood at 63%; with MES-SA cells (4 µM), 56%; in the data set with MES-SA cells (8 µM) it was 50%; with MES-SA/Dx5 cells (MES-SA/Dx5, 2 µM) it was 48%; in the data set on MES-SA/Dx5 cells (MES-SA/Dx5, 4 µM), 43%; in the data set on MES-SA/Dx5 cells (MES-SA/Dx5, 8 µM), 47%. Also, the G2/M was determined as 21% in the data set on MES-SA cells (2 µM); 25% in the data set with MES-SA cells (4 µM); 30% in the data set with MES-SA cells (8 µM); 32% in the data set on MES-SA/Dx5 cells (MES-SA/Dx5, 2 µM); 36% with MES-SA/Dx5 cells (MES-SA/Dx5, 4 µM); 36% in the data set on MES-SA/Dx5 cells (MES-SA/Dx5, 8 µM). Besides, the S turned out to be 16% in the data set with MES-SA cells (2 µM); 19% in the data set on MES-SA cells (4 µM); 20% in the data set on MES-SA cells (8 µM); 20% in the data set on MES-SA/Dx5 cells (MES-SA/Dx5, 2 µM); 21% in the data set on MES-SA/Dx5 cells (MES-SA/Dx5, 4 µM); 16% in the data set on MES-SA/Dx5 cells (MES-SA/Dx5, 8 µM). For the same compound, the cell cycle effect entry in the data set with MES-SA cells (setting [3]) is listed as “gradually increased the G2/M ratio in a concentration-dependent manner”. The “pKa[Cu(H2L)]2+” value in data set [1] (UV–vis spectrophotometry) is 4.48 ± 0.01; in data set [1] (pH potentiometry), 4.60 ± 0.02. The “Epa^1” value in data set [2] was “+0.31 V”. In addition, the “Epa^2” value in data set [2] is on record as “+0.77 V”. The “E1/2^red” value in data set [2] is on record as “–0.82 V”.

Consider `Cc1cc(NC(=NN=Cc2ccc(CN3CCOCC3)cn2)[S][Cu][Cl])cc(C)c1O` [complex 5, [Cu(HL^5)Cl]·2.5H2O], for which the “pKa[Cu(H2L)]2+” value in data set [1] (UV–vis spectrophotometry) turned out to be 4.75 ± 0.01. In data set [1] (pH potentiometry), the “pKa[Cu(H2L)]2+” value was determined as 4.95 ± 0.04. In addition, in data set [2], the “Epa^1” value is “+0.29 V”, the “Epa^2” value is listed as “+0.69 V” and the “E1/2^red” value is “–0.82 V”.

Turning to `Cc1cc(NC(=NN=Cc2cccc(CN3CCOCC3)n2)[S][Cu][Cl])cc(C)c1O` [complex 6, [Cu(HL^6)Cl]·H2O], the G0/G1 with MES-SA cells (2 µM) came out at 74%; with MES-SA cells (4 µM) it was 35%; with MES-SA cells (8 µM), 24%; in the data set with MES-SA/Dx5 cells (MES-SA/Dx5, 2 µM) it was 53%; in the data set with MES-SA/Dx5 cells (MES-SA/Dx5, 4 µM), 39%; with MES-SA/Dx5 cells (MES-SA/Dx5, 8 µM), 21%. The G2/M with MES-SA cells (2 µM) worked out at 17%; in the data set with MES-SA cells (4 µM), 55%; with MES-SA cells (8 µM) it was 68%; in the data set on MES-SA/Dx5 cells (MES-SA/Dx5, 2 µM), 35%; with MES-SA/Dx5 cells (MES-SA/Dx5, 4 µM), 48%; in the data set with MES-SA/Dx5 cells (MES-SA/Dx5, 8 µM) it was 68%. The S stood at 9% in the data set on MES-SA cells (2 µM); 11% in the data set with MES-SA cells (4 µM); 8% with MES-SA cells (8 µM); 12% with MES-SA/Dx5 cells (MES-SA/Dx5, 2 µM); 12% in the data set on MES-SA/Dx5 cells (MES-SA/Dx5, 4 µM); 11% in the data set on MES-SA/Dx5 cells (MES-SA/Dx5, 8 µM). Also, in the data set with MES-SA cells (setting [3]), the “concentrations inducing G2/M-phase arrest” value was at least 4 µM. Also, the “Epa^1” value in data set [2] is listed as “+0.26 V”. The “Epa^2” value in data set [2] is “+0.66 V”.

The values above are taken from PMC11181322, “Copper(II) Complexes with Isomeric Morpholine-Substituted 2-Formylpyridine Thiosemicarbazone Hybrids as Potential Anticancer Drugs Inhibiting Both Ribonucleotide Reductase and Tubulin Polymerization: The Morpholine Position Matters” (Journal of Medicinal Chemistry, 2024).
